Assay results published in paper PMC12090809 (Journal of Virology, 2025).
Entries after “also recorded” stand apart in the source; their conditions may differ.

Experiments:
[1] = Plasma pharmacokinetics of BNM-III-170 in SHIV AD8-EO-infected RMs (HPLC-MS/MS); type: in vivo, Macaca mulatta
Protocol: Plasma concentrations of BNM-III-170 in SHIV-infected animals were measured via liquid chromatography and mass spectrometry at several timepoints following each BNM-III-170 dose for all treatment cycles.

SHIV AD8-EO = test: Viral infectivity / neutralization assay in TZM-bl cells with SHIV variants; details: virus incubated with BNM-III-170 (Fig. 2A)
Protocol: The viral neutralization assay was done as previously described ([56]). Briefly, TZM-bl target cells were seeded at a density of 1 × 10^4 cells/well in 96-well luminometer-compatible tissue culture plates (Perkin-Elmer Life Sciences, Waltham, MA) 24 h before infection. Then, 100 µL portions of recombinant viruses was incubated with the indicated amount of mAbs, plasma, BNM-III-170, or a mixture of mAbs and BNM-III-170 for 1 h at 37°C and then added to the target cells. After incubation for 48 h at 37°C, the medium was removed from each well, and the cells were lysed by the addition of 30 µL of passive lysis buffer (Promega) and three freeze-thaw cycles. An LB 941 TriStar luminometer (Berthold Technologies) was used to measure the luciferase activity in each well after the addition of 100 µL of luciferin buffer (15 mM MgSO4, 15 mM KPO4 [pH 7.8], 1 mM ATP, and 1 mM dithiothreitol) and 50 µL of 1 mM D-luciferin potassium salt (Prolume).

[2] = test system: CEM.NKr-CCR5-sLTR-Luc cells infected with SHIV AD8-EO; type: cell-based
[3] = test system: SHIV AD8-EO-infected rhesus macaques; test: Complete blood counts and flow cytometry immunophenotyping of PBMCs in SHIV AD8-EO-infected RMs after BNM-III-170; type: in vivo, Macaca mulatta
Protocol: In addition to monitoring blood chemistries, complete blood counts (CBCs) were performed immediately prior to BNM-III-170 treatment and at several post-treatment timepoints (Fig. 4A). Significant increases in white blood cell counts (WBCs) were observed between 0 h and 24 h after the terminal dose of each treatment cycle (median WBCs: 7,550 and 12,595, respectively, P-value = 0.0391). This increase in WBCs was largely attributed to increases in neutrophils (median counts at 0 h vs. 24 h of 2,926 and 8,004, P-value = 0.0078) and, to a lesser extent, monocytes (median counts at 0 h vs 24 h after the terminal dose of 696 and 1,537, P-value = 0.0391). […] Of note, this lymphopenia was generally transient (Fig. S5).
To further investigate this observed lymphopenia, multiparameter flow cytometry was performed on PBMCs from 0 h and 24 h post-terminal dose timepoints from all treatment cycles (Fig. S6). […] While the exact cause of this non-specific lymphopenia is unknown, it may be due to depletion of lymphocytes or migration of lymphocytes to tissue; the latter explanation is more consistent with the transient nature of the lymphopenia.
A 20-parameter flow cytometric analysis was performed on fresh PBMCs and mononuclear cells (10^6 cells) derived from LN biopsies using anti-human monoclonal Abs (mAbs), which we ([6], [58][–][60]) and others, including databases maintained by the NHP Reagent Resource (MassBiologics), have shown as being cross-reactive in RMs. […] All samples were fixed with 1% paraformaldehyde and acquired within 24 h of fixation. Acquisition of data was performed on a FACSymphony A5 (BD Biosciences) driven by FACS DiVa software and analyzed with FlowJo (version 10.7; Becton, Dickinson, and Company).

[4] = test system: SHIV AD8-EO-infected rhesus macaques; test: Safety of subcutaneous BNM-III-170 dosing regimens in SHIV AD8-EO-infected RMs; type: in vivo, Macaca mulatta; details: for Blood chemistries / Clinical signs: SHIV AD8-EO-infected RMs, one line per animal; for ALP: normal range 83–363 U/L
[5] = test system: CH058TF-infected CEM.NKr cells; type: cell-based, HIV-1
Protocol: To assess the ability of bioavailable BNM-III-170 to induce conformational changes in HIV-1 Env, we assessed the capacity of the Abs naturally elicited in these infected RMs to recognize HIV-1-infected cells before and after BNM-III-170 administration. Plasma from treated animals was incubated with CH058TF-infected CEM.NKr cells, and the ability to recognize infected cells was measured by flow cytometry. […] Importantly, as observed in uninfected RMs, plasma levels of BNM-III-170 in treated, SHIV-infected RMs closely mirrored the kinetic curves for plasma binding.
Cell surface staining was performed at 48 h post-infection. Mock-infected or HIV-1-infected CEM.NKr or primary CD4+ T cells were incubated for 45 min at 37°C with anti-Env mAbs (5 µg/mL), plasma from PWH (1:1,000 dilution), or plasma from infected RMs (1:500). When indicated, antibody/plasma incubation was done in the presence of 50 µM of BNM-III-170, or equivalent amounts of DMSO. To evaluate the capacity of plasma from SHIV-AD8-EO-infected RMs treated with BNM-III-170 to recognize HIV-1-infected cells, a 1:10 plasma dilution was used. Cells were then washed twice with PBS and stained with the appropriate Alexa Fluor 647-conjugated secondary antibody (2 µg/mL) for 20 min and the viability dye AquaVivid (Thermo Fisher Scientific) at room temperature. […]

[6] = 36 mg/kg SQ, 2 doses, dosing interval 1 day, 36 mg/kg
[7] = 36 mg/kg SQ, 3 doses, dosing interval 3 days, 36 mg/kg
[8] = animal 14C013 at necropsy, 2 × 36 mg/kg SQ every 24 h

## CNCc1ccc2c(c1)C[C@H](CN=C(N)N)[C@H]2NC(=O)C(=O)Nc1ccc(Cl)c(F)c1.O=C(O)C(F)(F)F.O=C(O)C(F)(F)F [BNM-III-170]
[1]; SHIV AD8-EO-infected RMs, following first dose of each treatment cycle (24 or 36 mg/kg SQ)
  Cmax: 4100 to 12800 ng/mL
[1]; SHIV-infected RMs, 36 mg/kg once every 3 days
  plasma BNM-III-170 level between doses: below the limit of detection
[1]; SHIV-infected RMs, all treatment cycles, generally
  plasma level 6 h after each dose: > 675 ng/mL
SHIV AD8-EO
  effect on SHIV AD8-EO infectivity: directly decrease SHIV AD8-EO infectivity
[2]
  binding of plasma from PWH to infected cells: enhance binding of plasma from PWH
[3]; 24 h after terminal dose of each treatment cycle, 0 h median 7,550, P-value = 0.0391
  white blood cell counts (WBCs), median: 12,595
[3]; 24 h after terminal dose, 0 h median 696, P-value = 0.0391
  monocytes, median counts: 1,537
[3]; 24 h after terminal dose, 0 h median 2,926, P-value = 0.0078
  neutrophils, median counts: 8,004
[3]; 24 h post-terminal dose, 0 h median 191, P = 0.0078
  absolute numbers of NK cells, median: 48 cells per μL blood
[3]; 24 h post-terminal dose, 0 h median 496, P = 0.0078
  absolute numbers of CD4+ T cells, median: 283 cells per μL blood
[3]; 24 h post-terminal dose, 0 h median 1,084, P = 0.0078
  absolute numbers of CD8+ T cells, median: 323.5 cells per μL blood
[3]; 24 h post-terminal dose, 0 h median 1,129, P = 0.0391
  absolute numbers of B cells, median: 1,080 cells per μL blood
[3]; 24 h post-terminal dose, 49% at 0 h, P = 0.0078
  lymphocyte frequency in whole blood: 19.5%
[3]; 24 h post-terminal dose, 3,774 at 0 h, P = 0.0078
  lymphocyte numbers in whole blood: 2,068
[4]; 24 mg/kg SQ, 1 dose, 24 mg/kg
  Blood chemistries: Transient elevation of CPK, troponin I
[4]; [6]
  Blood chemistries: Elevated AST, ALT, amylase, CPK, troponin I; also recorded: Transient elevation of ALP, CPK, troponin I
  Clinical signs: pale mucus membranes, weak femoral pulses, and dyspnea; also recorded: Animal experienced acute respiratory distress and tachycardia at 6 hr post dose #2 and was sacrificed; inconclusive path report, pale liver noted; also recorded: Enlarged liver and spleen, lesion at BNM-III-170 injection site
[4]; [7]
  Blood chemistries: Transient elevation of AST, ALT, CPK; also recorded: Elevated BUN, BUN/Cr, CPK; low potassium
  Clinical signs: mild erythema at the BNM-III-170 injection sites; also recorded: Animal reached endpoint criteria (weight loss > 25%) due to chronic diarrhea that started prior to CD4mc treatments, animal sacrificed 3 hr post dose #2
[4]; 36 mg/kg SQ, 3 doses, dosing interval 7 days, 36 mg/kg
  Blood chemistries: Transient elevation of AST, ALP, TRIG, CPK; also recorded: Transient elevation of AST, ALT, ALP, CSK; also recorded: Transient elevation of Glob, ALT, ALP, GGT, AMY, CPK
[4]; SHIV-infected RMs 14C056 and 34901, 1 × 24 mg/kg SQ
  adverse reactions: No adverse reactions were observed
[4]; SHIV-infected RMs, 36 mg/kg SQ doses at 7-day dosing interval
  clinical signs of toxicity: no clinical signs of toxicity were noted
[4]; [8]
  ALT: 123 U/L
  AST: 145 U/L
  troponin I: 0.28 ng/mL
[4]; animal 14C013 at necropsy, 2 × 36 mg/kg SQ every 24 h, normal range 148–316 U/L
  amylase: 421 U/L
[4]; animal 14C056, 24 h after dose 3, 36 mg/kg SQ every 3 days
  AST: 109 U/L
[4]; animal 34901, 6 h post-dose, 1 × 24 mg/kg SQ, resolved by 5 days post-treatment
  troponin I: 0.090 ng/mL
[4]; animal 34901 at necropsy (3 h after dose 2, 36 mg/kg SQ every 3 days), 2.4 vs 2.8 at 0 h of cycle, normal range 3–5 mmol/L
  potassium: 2.4 mmol/L
[4]; animal 34901 at necropsy (3 h after dose 2, 36 mg/kg SQ every 3 days), 34 at 0 h of cycle, normal range 9–27, likely due to prolonged diarrhea
  blood urea nitrogen: 28 mg/dL
[4]; animal 34901 at necropsy (3 h after dose 2, 36 mg/kg SQ every 3 days), 37.8 at 0 h of cycle, normal range 12.5–33.3
  ratio of blood urea nitrogen to creatinine: 35
[4]; animal RYj17, 6 h after dose 1 of 2 × 36 mg/kg SQ every 24 h, resolved by 24 h
  troponin I: 0.049 ng/mL
[4]; animal RYj17, 24 h after dose 2 of 2 × 36 mg/kg SQ every 24 h
  ALP: 405 U/L
[4]; animal RYj17, 16 days later (after 24 h post dose 2), 2 × 36 mg/kg SQ every 24 h
  ALP: 715 U/L
[5]; each treatment cycle, Spearman correlation
  association of BNM-III-170 plasma concentrations with plasma binding to infected cells: correlated with plasma binding to infected cells
[5]; plasma from treated SHIV-infected RMs, depending on the dose used
  time post-administration up to which RM plasma efficiently recognized infected cells: up to 6 h
